According to patent US8142769B2, “Preparation and xenotransplantation of porcine islets” (Diabcell Pty Ltd, priority 2000, dated 2012):

Test system: porcine islets
Test: Static glucose stimulation (SGS): in vitro insulin secretion of porcine islets in culture
Type: cell-based
Excerpt: Static glucose stimulation (SGS) is used to assess in vitro function of the porcine islets by exposing them to low and high concentrations of glucose and theophylline. Determination of the in vitro insulin secretory capacity is undertaken on both free islets (after 3 days in culture) and after their subsequent encapsulation.
Keep the cells 3 days in culture before Static Glucose Stimulation (SGS). SGS involves exposure of the cells to low and high concentration of glucose to check insulin production. […]
Islet endocrine function was assessed after 3 days in culture via static glucose stimulation.

[1] = Incubated 24 hrs with 1.0 ug/ml IgF-1

“Human Insulin-like Growth Factor I [IgF-1]” was tested, and the “Insulin secretion in response to 19.4 mM Glucose + 10 mM Theophylline, increase compared to control” value (3 days post IgF-1 exposure) was 1.5-fold increase, the “Insulin secretion in response to 19.4 mM Glucose + 10 mM Theophylline, increase compared to control” value (14 days post IgF-1 exposure) was 1.3-fold increase and the “Concentration in culture sufficient to produce optimal insulin secretion during glucose challenge” value (IgF-1 tested at 0.1 and 1.0 ug/ml) was 0.1 µg/mL. For the same compound, the “Insulin secretion in response to 19.4 mM Glucose + 10 mM Theophylline after 3 days culture post isolation” value (Incubated 24 hrs with 0.1 ug/ml IgF-1, concentration comparison, different islet preparation) was 58 uU/hr/100 IEQ, the “Insulin secretion in response to 19.4 mM Glucose + 10 mM Theophylline after 3 days culture post isolation” value (Incubated 24 hrs with 0.1 ug/ml IgF-1 after isolation, control 75.2) was 236 uU/hr/100 IEQ and the “Insulin secretion in response to 19.4 mM Glucose + 10 mM Theophylline 7 days post isolation” value [1] was 57.5 uU/hr/100 IEQ. For the same compound, the “Insulin secretion in response to 19.4 mM Glucose + 10 mM Theophylline after 3 days culture post isolation” value [1] was 56.8 uU/hr/100 IEQ, the “Insulin secretion in response to 19.4 mM Glucose + 10 mM Theophylline after 3 days culture post isolation” value (Incubated 3 days with 0.1 ug/ml IgF-1 without Nicotinamide, media without nicotinamide alone 55.9) was 47.6 uU/hr/100 IEQ and the “Insulin secretion in response to 19.4 mM Glucose + 10 mM Theophylline 7 days post isolation” value (Incubated 7 days with 0.1 ug/ml IgF-1) was 58 uU/hr/100 IEQ. For the same compound, the “Increase of insulin response to glucose” value (porcine islets in culture exposed to IgF-1) was ≤ 3 fold and the “Benefit of culturing the islets beyond a 24 hrs period post isolation” value (variations on the duration of IgF-1 exposure) was “no increased benefit”.

With “IgF-2: insulin-like growth factor expressed in many cell types, used in islet culture at 0.1 ug/ml” the “Effect on insulin production of porcine islet cells” value (0.1 ug/ml IgF-2, initial exposure of 24 hrs, transient to 3 days post exposure) was “appeared to increase insulin production”, the “Insulin secretion in response to 19.4 mM Glucose + 10 mM Theophyline after 3 days culture post isolation” value (Incubated 24 hrs with 0.1 ug/ml IgF-2 day 1, control 75.2) was 105.8/100 IEQ and the “Insulin secretion in response to 19.4 mM Glucose + 10 mM Theophyline after 3 days culture post isolation” value (Incubated 24 hrs with 0.1 ug/ml IgF-2 day 1, second table, control 39.8) was 32 uU/hr/100 IEQ. The “Insulin secretion in response to 19.4 mM Glucose + 10 mM Theophyline after 7 days culture post isolation” value (Incubated 7 days with 0.1 ug/ml IgF-2, control 39.8) was 38.4 uU/hr/100 IEQ and the “Effect on insulin production of the islet cells in response to glucose” value (prolonged exposure to IgF-2 beyond 24 hrs) was “failed to increase”.

For `CCN(CC)CC(=O)Nc1c(C)cccc1C` [Lignocaine, reference compound], the “Increase in insulin secretion in response to glucose challenge” value (Lignocaine during digestion, after 3 days in culture) was 3 fold and the “Insulin secretion in response to 19.4 mM Glucose + 10 mM Theophyline after 3 days culture post isolation” value (islets isolated by Collagenase digestion, with or without 1 mM Lignocaine) was 163.8 uU/hr/100 IEQ.
